Data from ChEMBL document CHEMBL3045663, “Synthesis and Activity of Novel Acaricidal/Insecticidal 2, 4-Diphenyl-1, 3-oxazolines” (J Pestic Sci, 2002).
≈ marks a conversion by molar mass, not a printed value.

Experiments:
Assay type in all cases: functional
Myzus persicae = experiment: Insecticidal activity against Myzus persicae (green peach aphid) in compound treated radish leaf assessed as mortality at 500 ppm
Plutella xylostella = experiment: Insecticidal activity against Plutella xylostella (diamondback moth) in compound treated radish leaf assessed as mortality at 500 ppm
Nephotettix cincticeps = experiment: Insecticidal activity against Nephotettix cincticeps (green rice leafhopper) in compound treated rice seedlings assessed as mortality at 500 ppm
Tetranychus urticae = experiment: Acaricidal activity against Tetranychus urticae (two-spotted spider mite) in compound treated kidney bean leaf assessed as larvicidal activity

Compound	mortality at 500 ppm (Myzus persicae) [%]	mortality at 500 ppm (Plutella xylostella) [%]	mortality at 500 ppm (Nephotettix cincticeps) [%]	LC50 (Tetranychus urticae) [µg/mL]
Fc1cccc(F)c1C1=NC(c2ccc(C(F)(F)F)cc2)CO1 (centres undefined)	100	85	60	0.01 (≈ 0.0306 µM)
CCc1cccc(C2COC(c3c(F)cccc3F)=N2)c1 (centres undefined)	0	0	60	10 (≈ 34.8 µM)
Fc1cccc(F)c1C1=NC(c2ccc(Cl)cc2Cl)CO1 (centres undefined)	100	60	60	0.01 (≈ 0.0305 µM)
CCCOc1cc(C(C)C)ccc1C1COC(c2c(F)cccc2F)=N1 (centres undefined)	100	85	100	< 0.001
CCCCOc1cc(C(C)(C)C)ccc1C1COC(c2c(F)cccc2F)=N1 (centres undefined)	100	35	0	0.01 (≈ 0.0258 µM)
CCCCCCOc1cc(C(C)(C)C)ccc1C1COC(c2c(F)cccc2F)=N1 (centres undefined)	10	100	60	0.1 (≈ 0.241 µM)
CS(=O)(=O)c1ccc(C2COC(c3c(F)cccc3F)=N2)cc1 (centres undefined)	85	60	0	100 (≈ 296 µM)
Fc1cccc(F)c1C1=NC(c2ccc(Cl)cc2)CO1 (centres undefined)	0	0	60	0.001 (≈ 0.0034 µM)
CCCCCCCCCCOc1ccc(C2COC(c3c(F)cccc3F)=N2)cc1 (centres undefined)	100	100	10	< 0.001
Fc1cccc(C2COC(c3c(F)cccc3F)=N2)c1 (centres undefined)	0	0	60	1 (≈ 3.61 µM)
CCCCCCCCCCCCc1ccc(C2COC(c3c(F)cccc3F)=N2)c(F)c1 (centres undefined)	0	100	0	0.01 (≈ 0.0224 µM)
CN(C)c1ccc(C2COC(c3c(F)cccc3F)=N2)cc1 (centres undefined)	85	0	0	10 (≈ 33.1 µM)
CC(C)Cc1ccc(C2COC(c3c(F)cccc3F)=N2)cc1 (centres undefined)	100	60	0	< 0.001
Fc1ccccc1C1COC(c2c(F)cccc2F)=N1 (centres undefined)	60	10	35	1 (≈ 3.61 µM)
CCCCCCc1ccc(C2COC(c3c(F)cccc3F)=N2)cc1Cl (centres undefined)	0	0	0	0.1 (≈ 0.265 µM)
CCOc1cc(Cl)ccc1C1COC(c2c(F)cccc2F)=N1 (centres undefined)	100	100	100	0.1 (≈ 0.296 µM)
CC(C)Oc1ccc(C2COC(c3c(F)cccc3F)=N2)cc1 (centres undefined)	100	0	0	0.001 (≈ 0.00315 µM)
Fc1ccc(C2COC(c3c(F)cccc3F)=N2)c(F)c1 (centres undefined)	100	85	35	0.01 (≈ 0.0339 µM)
CCCCCCCCCc1ccc(C2COC(c3c(F)cccc3F)=N2)c(OC)c1 (centres undefined)	100	100	10	0.001 (≈ 0.00241 µM)
CCc1ccc(C2COC(c3c(F)cccc3F)=N2)cc1 (centres undefined)	100	0	60	0.001 (≈ 0.00348 µM)
CC(C)Sc1ccc(C2COC(c3c(F)cccc3F)=N2)cc1 (centres undefined)	85	10	10	0.1 (≈ 0.3 µM)

Compound	mortality at 500 ppm (Myzus persicae) [%]	mortality at 500 ppm (Plutella xylostella) [%]	mortality at 500 ppm (Nephotettix cincticeps) [%]	LC50 (Tetranychus urticae) [µg/mL]
CCc1ccc(C2COC(c3c(F)cccc3F)=N2)c(F)c1 (centres undefined)	0	0	0	0.1 (≈ 0.328 µM)
CCCCCCCCOc1ccc(C2COC(c3c(F)cccc3F)=N2)cc1 (centres undefined)	85	60	0	< 0.001
CCOc1ccccc1C1COC(c2c(F)cccc2F)=N1 (centres undefined)	0	10	100	10 (≈ 33 µM)
CCCCCc1ccc(C2COC(c3c(F)cccc3F)=N2)c(OCC)c1 (centres undefined)	85	35	100	< 0.001
CCCCCCCCCCc1ccc(C2COC(c3c(F)cccc3F)=N2)cc1 (centres undefined)	85	100	0	< 0.001
Cc1cccc(C2COC(c3c(F)cccc3F)=N2)c1 (centres undefined)	0	0	0	10 (≈ 36.6 µM)
CCCCCCCCCCCCc1ccc(C2COC(c3c(F)cccc3F)=N2)c(Cl)c1 (centres undefined)	0	60	0	0.1 (≈ 0.216 µM)
CCCCCCCCCCCCCCOc1ccc(C2COC(c3c(F)cccc3F)=N2)cc1 (centres undefined)	60	85	10	0.01 (≈ 0.0212 µM)
Fc1cccc(F)c1C1=NC(c2cccc(Cl)c2)CO1 (centres undefined)	0	0	0	1 (≈ 3.4 µM)
CCc1ccc(C2COC(c3c(F)cccc3F)=N2)c(Cl)c1 (centres undefined)	0	0	0	0.001 (≈ 0.00311 µM)
CCCCCCc1ccc(C2COC(c3c(F)cccc3F)=N2)c(Cl)c1 (centres undefined)	100	100	100	< 0.001
Cc1ccccc1C1COC(c2c(F)cccc2F)=N1 (centres undefined)	0	0	10	10 (≈ 36.6 µM)
COc1ccccc1C1COC(c2c(F)cccc2F)=N1 (centres undefined)	0	0	10	10 (≈ 34.6 µM)
CCCCCCCCCCCCc1ccc(C2COC(c3c(F)cccc3F)=N2)cc1 (centres undefined)	85	100	0	< 0.001
CCCCCCCCCCc1ccc(C2COC(c3c(F)cccc3F)=N2)c(OC)c1 (centres undefined)	100	85	10	0.01 (≈ 0.0233 µM)
C[Si](C)(C)c1ccc(C2COC(c3c(F)cccc3F)=N2)cc1 (centres undefined)	100	100	60	< 0.001
CCOc1cc(C(C)C)ccc1C1COC(c2c(F)cccc2F)=N1 (centres undefined)	100	60	100	0.01 (≈ 0.029 µM)
CCCCCCCCc1ccc(C2COC(c3c(F)cccc3F)=N2)c(Cl)c1 (centres undefined)	100	85	0	< 0.001
CCCCCCCc1ccc(C2COC(c3c(F)cccc3F)=N2)c(F)c1 (centres undefined)	100	100	0	< 0.001
Fc1cccc(F)c1C1=NC(c2ccc(OC(F)(F)F)cc2)CO1 (centres undefined)	100	85	35	0.001 (≈ 0.00291 µM)
